Laboratory results: ChEMBL document CHEMBL1201862, “PubChem BioAssay data set” (2004)
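Exposure lasted 48 hours, with cells grown in 96-well plates and compounds tested at five concentrations. Here, GI50 denotes the concentration required for 50% inhibition of growth.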 Activity calls are given as the source filed them. No stated cut-off is given here; in the data, active = GI50 up to about 1.1 µM and inactive = higher.

Legend:
Assay in all cases: NCI tumour cell line growth inhibition, 48 h
[1] = test system: 786-0
[2] = test system: A549
[3] = test system: CCRF-CEM
[4] = test system: EKVX
[5] = test system: HCC 2998
[6] = test system: HCT-116
[7] = test system: M14
[8] = test system: Malme-3M
[9] = test system: NCI-H522
[10] = test system: SF-268
[11] = test system: SF-539
[12] = test system: SK-MEL-28
[13] = test system: SK-MEL-2
[14] = test system: SK-MEL-5
[15] = test system: SNB-19
[16] = test system: SW-620
[17] = test system: TK-10
[18] = test system: U-251
[19] = test system: SK-OV-3
[20] = test system: RXF 393

Row | Structure (SMILES) | GI50 [1] | GI50 [2] | GI50 [3] | GI50 [4] | GI50 [5] | GI50 [6] | GI50 [7] | GI50 [8] | GI50 [9] | GI50 [10] | GI50 [11] | GI50 [12] | GI50 [13] | GI50 [14] | GI50 [15] | GI50 [16] | GI50 [17] | GI50 [18] | GI50 [19] | GI50 [20]
1 | CC(C)(C)CNC(=O)NCn1cc(-c2ccccc2)nn1 | > 100 µM (inactive) | > 100 µM (inactive) | > 100 µM (inactive) | > 100 µM (inactive) | > 100 µM (inactive) | > 100 µM (inactive) | > 100 µM (inactive) | > 100 µM (inactive) | > 100 µM (inactive) | > 100 µM (inactive) | > 100 µM (inactive) | > 100 µM (inactive) | > 100 µM (inactive) | > 100 µM (inactive) | > 100 µM (inactive) | > 100 µM (inactive) | > 100 µM (inactive) | > 100 µM (inactive) | – | –
2 | COc1ccc(CNc2nc3cc(C(F)(F)F)ccc3nc2C(=O)O)cc1OC | 32.9 µM (inactive) | 35.6 µM (inactive) | 18.4 µM (inactive) | 31.8 µM (inactive) | 36 µM (inactive) | 29 µM (inactive) | 32 µM (inactive) | – | – | – | 32.5 µM (inactive) | 67 µM (inactive) | 23.2 µM (inactive) | 20.8 µM (inactive) | 29.6 µM (inactive) | 43.5 µM (inactive) | – | 24.3 µM (inactive) | 29.7 µM (inactive) | –
3 | COC(=O)C1CC(c2ccc(Cl)cc2)=NO1 (configuration not stated) | > 100 µM (inactive) | > 100 µM (inactive) | > 100 µM (inactive) | > 100 µM (inactive) | > 100 µM (inactive) | > 100 µM (inactive) | > 100 µM (inactive) | > 100 µM (inactive) | > 100 µM (inactive) | > 100 µM (inactive) | > 100 µM (inactive) | > 100 µM (inactive) | > 100 µM (inactive) | > 100 µM (inactive) | – | > 100 µM (inactive) | > 100 µM (inactive) | > 100 µM (inactive) | > 100 µM (inactive) | –
4 | CC(=O)N(CN1C(=O)CCC1C(=O)O)c1ccc(C)cc1 (configuration not stated) | > 100 µM (inactive) | > 100 µM (inactive) | > 100 µM (inactive) | > 100 µM (inactive) | > 100 µM (inactive) | > 100 µM (inactive) | > 100 µM (inactive) | > 100 µM (inactive) | > 100 µM (inactive) | > 100 µM (inactive) | > 100 µM (inactive) | > 100 µM (inactive) | > 100 µM (inactive) | > 100 µM (inactive) | > 100 µM (inactive) | > 100 µM (inactive) | > 100 µM (inactive) | > 100 µM (inactive) | > 100 µM (inactive) | –
5 | CC(C)(CO)NC(=O)c1cccc(C(=O)NC(C)(C)CO)c1Br | > 100 µM (inactive) | > 100 µM (inactive) | – | > 100 µM (inactive) | > 100 µM (inactive) | > 100 µM (inactive) | > 100 µM (inactive) | > 100 µM (inactive) | – | > 100 µM (inactive) | > 100 µM (inactive) | > 100 µM (inactive) | > 100 µM (inactive) | > 100 µM (inactive) | > 100 µM (inactive) | > 100 µM (inactive) | > 100 µM (inactive) | > 100 µM (inactive) | – | 7.83 µM (inactive)
6 | CC1(C)O[C@H]2OC(CO)C(OS(C)(=O)=O)[C@H]2O1 (some centres not stated) | > 100 µM (inactive) | > 100 µM (inactive) | > 100 µM (inactive) | > 100 µM (inactive) | > 100 µM (inactive) | > 100 µM (inactive) | > 100 µM (inactive) | > 100 µM (inactive) | 48.1 µM (inactive) | > 100 µM (inactive) | > 100 µM (inactive) | > 100 µM (inactive) | > 100 µM (inactive) | > 100 µM (inactive) | > 100 µM (inactive) | > 100 µM (inactive) | > 100 µM (inactive) | > 100 µM (inactive) | – | –
7 | O=C1CSC(/C=C/c2ccccc2)N1c1ccc(-c2ccc(-n3c(-c4ccccc4)nc4ccccc4c3=O)cc2)cc1 (configuration not stated) | 13.4 µM (inactive) | 24 µM (inactive) | 20.3 µM (inactive) | 15.5 µM (inactive) | 66.2 µM (inactive) | – | 16.9 µM (inactive) | 23.1 µM (inactive) | 17.8 µM (inactive) | 35.6 µM (inactive) | – | 18.8 µM (inactive) | 19.1 µM (inactive) | 13.8 µM (inactive) | 21.8 µM (inactive) | 19.4 µM (inactive) | 39.5 µM (inactive) | 21.5 µM (inactive) | 51.8 µM (inactive) | –
8 | NC(=O)c1ncn(C2CCC(CP(=O)(O)O)C2)c1N (configuration not stated) | > 100 µM (inactive) | > 100 µM (inactive) | – | > 100 µM (inactive) | > 100 µM (inactive) | > 100 µM (inactive) | > 100 µM (inactive) | > 100 µM (inactive) | – | > 100 µM (inactive) | > 100 µM (inactive) | > 100 µM (inactive) | > 100 µM (inactive) | > 100 µM (inactive) | > 100 µM (inactive) | > 100 µM (inactive) | > 100 µM (inactive) | > 100 µM (inactive) | > 100 µM (inactive) | > 100 µM (inactive)
9 | COC(C/C(=C/CO[Si](C(C)C)(C(C)C)C(C)C)C(=O)N(C(=O)OC(C)(C)C)c1ccccc1I)OC | 28.4 µM (inactive) | 28.8 µM (inactive) | > 10 µM (inactive) | – | 40.6 µM (inactive) | 11.8 µM (inactive) | 47.2 µM (inactive) | – | 2.77 µM (inactive) | > 100 µM (inactive) | – | 67.3 µM (inactive) | 17.8 µM (inactive) | 56.2 µM (inactive) | 56.4 µM (inactive) | 59.3 µM (inactive) | 49 µM (inactive) | 37.6 µM (inactive) | > 100 µM (inactive) | –
10 | COc1cc(Cn2c3c(c4c(CN(C)C)c(O)ccc42)C(=O)c2ccccc2C3=O)cc(OC)c1 | 12.5 µM (inactive) | 15.1 µM (inactive) | 24.3 µM (inactive) | 20 µM (inactive) | 17.9 µM (inactive) | 13.6 µM (inactive) | 17.2 µM (inactive) | 23.2 µM (inactive) | – | 14.8 µM (inactive) | 16.3 µM (inactive) | 15.8 µM (inactive) | 16.3 µM (inactive) | 11.9 µM (inactive) | 18.7 µM (inactive) | 18.7 µM (inactive) | 28.7 µM (inactive) | 14.8 µM (inactive) | 20.1 µM (inactive) | –
11 | CC(C)c1ccccc1SC1CC(=O)CC(Sc2ccccc2C(C)C)C12O[C@H](c1ccccc1)[C@@H](c1ccccc1)O2 (some centres not stated) | 18.1 µM (inactive) | > 100 µM (inactive) | 13.4 µM (inactive) | > 100 µM (inactive) | 36 µM (inactive) | 32.7 µM (inactive) | 21.5 µM (inactive) | – | – | – | 57.1 µM (inactive) | 38.5 µM (inactive) | 35.6 µM (inactive) | 35.6 µM (inactive) | > 100 µM (inactive) | 39.2 µM (inactive) | 85.9 µM (inactive) | 20.3 µM (inactive) | > 100 µM (inactive) | 19.9 µM (inactive)
12 | CC1C(OC2O[C@@H]3O[C@@]4(C)CC[C@H]5[C@H](C)CC[C@@H](C2C)[C@@]35O4)O[C@@H]2O[C@@]3(C)CC[C@H]4[C@H](C)CC[C@@H]1[C@@]24O3 (some centres not stated) | > 50 µM (inactive) | > 50 µM (inactive) | > 50 µM (inactive) | > 50 µM (inactive) | > 50 µM (inactive) | > 50 µM (inactive) | > 50 µM (inactive) | > 50 µM (inactive) | 19.3 µM (inactive) | > 50 µM (inactive) | > 50 µM (inactive) | > 50 µM (inactive) | > 50 µM (inactive) | > 50 µM (inactive) | > 50 µM (inactive) | > 50 µM (inactive) | > 50 µM (inactive) | > 50 µM (inactive) | > 50 µM (inactive) | –
13 | CN(C)CC(NC(NCS)C(=O)NCCNc1ccc(NCCNC(=O)C(NCS)NC(CN(C)C)OCCl)c2c1C(=O)c1c(O)ccc(O)c1C2=O)OCCl (configuration not stated) | 0.0552 µM (active) | < 0.001 µM (active) | – | 0.228 µM (active) | 0.237 µM (active) | 0.0249 µM (active) | 0.124 µM (active) | 0.0605 µM (active) | – | 0.0557 µM (active) | – | 0.0229 µM (active) | 1.45 µM (inactive) | 0.113 µM (active) | 0.0301 µM (active) | 0.00461 µM (active) | 0.619 µM (active) | 0.102 µM (active) | 0.147 µM (active) | –
14 | O=C1/C(=C/c2ccc(C(=O)O)cc2)CNC/C1=C\c1ccc(C(=O)O)cc1 | > 100 µM (inactive) | > 100 µM (inactive) | > 100 µM (inactive) | – | > 100 µM (inactive) | > 100 µM (inactive) | > 100 µM (inactive) | > 100 µM (inactive) | – | > 100 µM (inactive) | > 100 µM (inactive) | > 100 µM (inactive) | – | > 100 µM (inactive) | – | – | > 100 µM (inactive) | > 100 µM (inactive) | > 100 µM (inactive) | > 100 µM (inactive)
15 | Cc1ncc([N+](=O)[O-])n1CCNC(=O)CCCCn1ccnc1[N+](=O)[O-] | > 100 µM (inactive) | > 100 µM (inactive) | > 100 µM (inactive) | – | > 100 µM (inactive) | > 100 µM (inactive) | > 100 µM (inactive) | > 100 µM (inactive) | > 100 µM (inactive) | > 100 µM (inactive) | > 100 µM (inactive) | – | > 100 µM (inactive) | > 100 µM (inactive) | > 100 µM (inactive) | > 100 µM (inactive) | – | > 100 µM (inactive) | > 100 µM (inactive) | –
